Measurements from ChEMBL document CHEMBL1201862, “PubChem BioAssay data set” (2004).
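48-hour exposure; five concentrations; linearly interpolated endpoints. GI50 is the concentration that inhibits growth by half.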 Activity calls are given as the source filed them. Rule as the data show it: active = GI50 up to about 1.1 µM and inactive = higher.

How the values were obtained:
Experiment in all cases: DTP human tumour cell line panel, 48 h
A498 = system: A498
A549 = system: A549
CCRF-CEM = system: CCRF-CEM
HCC 2998 = system: HCC 2998
HOP-92 = system: HOP-92
HT-29 = system: HT-29
Hs-578T = system: Hs-578T
IGROV-1 = system: IGROV-1
NCI-H226 = system: NCI-H226
NCI-H23 = system: NCI-H23
OVCAR-3 = system: OVCAR-3
OVCAR-8 = system: OVCAR-8
SK-MEL-28 = system: SK-MEL-28
SK-OV-3 = system: SK-OV-3
SN12C = system: SN12C
SNB-19 = system: SNB-19
SNB-75 = system: SNB-75
SW-620 = system: SW-620
UACC-257 = system: UACC-257
UACC-62 = system: UACC-62

Measured: GI50

COc1cc(COC(=O)N2CCCCC2C(=O)O)c([N+](=O)[O-])cc1OC (centres undefined)
inactive: A498 > 100 µM | A549 > 100 µM | CCRF-CEM > 100 µM | HCC 2998 > 100 µM | HOP-92 > 100 µM | HT-29 > 100 µM | Hs-578T > 100 µM | IGROV-1 > 100 µM | NCI-H226 > 100 µM | NCI-H23 > 100 µM | OVCAR-3 > 100 µM | OVCAR-8 > 100 µM | SK-MEL-28 > 100 µM | SK-OV-3 > 100 µM | SN12C > 100 µM | SNB-19 > 100 µM | SNB-75 > 100 µM | SW-620 > 100 µM | UACC-257 > 100 µM | UACC-62 > 100 µM

O=C(Nc1sccc1S(=O)(=O)c1ccccc1)c1ccccc1
inactive: A498 > 100 µM | A549 > 100 µM | HCC 2998 > 100 µM | HOP-92 > 100 µM | HT-29 > 31.6 µM | Hs-578T > 100 µM | IGROV-1 > 100 µM | NCI-H226 > 100 µM | NCI-H23 > 100 µM | OVCAR-3 99.5 µM | OVCAR-8 > 100 µM | SK-MEL-28 > 100 µM | SK-OV-3 > 100 µM | SN12C > 100 µM | SNB-19 > 100 µM | SNB-75 > 100 µM | SW-620 > 84.3 µM | UACC-257 > 100 µM | UACC-62 > 100 µM

Brc1ccccc1/C=C\C1(c2ccccc2)OCCO1
inactive: A498 12.9 µM | A549 16 µM | CCRF-CEM 3.03 µM | HCC 2998 15.7 µM | HOP-92 23.3 µM | HT-29 7.01 µM | Hs-578T 7.6 µM | IGROV-1 13.6 µM | NCI-H226 18.3 µM | NCI-H23 7.29 µM | OVCAR-3 12.7 µM | OVCAR-8 9.23 µM | SK-MEL-28 18.8 µM | SK-OV-3 13.6 µM | SN12C 14.1 µM | SNB-19 15 µM | SNB-75 15 µM | SW-620 5.47 µM | UACC-257 16.5 µM | UACC-62 14.7 µM

CNC1NC(=O)c2ccccc2N1Cc1ccc(F)cc1 (centres undefined)
inactive: A498 > 100 µM | A549 > 100 µM | CCRF-CEM > 100 µM | HCC 2998 > 100 µM | HOP-92 > 100 µM | HT-29 > 100 µM | Hs-578T > 100 µM | IGROV-1 > 100 µM | NCI-H226 > 100 µM | NCI-H23 > 100 µM | OVCAR-3 > 100 µM | OVCAR-8 > 100 µM | SK-MEL-28 > 100 µM | SK-OV-3 > 100 µM | SN12C > 100 µM | SNB-19 > 100 µM | SNB-75 > 100 µM | SW-620 > 100 µM | UACC-257 > 100 µM | UACC-62 > 100 µM

CC1=C2NCN(C)N=C2C(C#N)(C#N)C1(C#N)C#N
inactive: A498 41.3 µM | A549 > 78.5 µM | CCRF-CEM 2.22 µM | HCC 2998 21 µM | HOP-92 15.4 µM | HT-29 21.4 µM | Hs-578T 32.6 µM | IGROV-1 24.8 µM | NCI-H226 > 50.7 µM | NCI-H23 14.1 µM | OVCAR-3 20.4 µM | OVCAR-8 27 µM | SK-MEL-28 21.6 µM | SK-OV-3 > 100 µM | SN12C 19.5 µM | SNB-19 36.9 µM | SNB-75 > 51.1 µM | SW-620 10.2 µM | UACC-257 17 µM | UACC-62 20.8 µM

c1ccc2c(c1)Sc1ccccc1N2CC1CN2CCC1CC2 (centres undefined) [MEQUITAZINE]
inactive: A498 11.7 µM | A549 9.71 µM | CCRF-CEM 3.28 µM | HCC 2998 1.29 µM | HOP-92 11 µM | HT-29 3.01 µM | Hs-578T 8.2 µM | IGROV-1 11.2 µM | NCI-H226 14.5 µM | NCI-H23 13 µM | OVCAR-3 3.97 µM | OVCAR-8 13.4 µM | SK-MEL-28 2 µM | SK-OV-3 12.5 µM | SN12C 11.3 µM | SNB-19 9.23 µM | SNB-75 1.75 µM | SW-620 3.58 µM | UACC-257 1.88 µM | UACC-62 3.13 µM

CCOC(=O)c1c(SC(=O)c2ccc(Cl)cc2)n(-c2ccccc2)c(=S)n(-c2ccccc2)c1=O
inactive: A498 > 100 µM | A549 > 100 µM | CCRF-CEM > 100 µM | HCC 2998 > 100 µM | HOP-92 > 100 µM | HT-29 > 100 µM | Hs-578T > 100 µM | IGROV-1 > 100 µM | NCI-H226 > 100 µM | NCI-H23 > 100 µM | OVCAR-3 > 100 µM | OVCAR-8 > 100 µM | SK-MEL-28 > 100 µM | SK-OV-3 > 100 µM | SN12C > 100 µM | SNB-19 > 100 µM | SNB-75 > 100 µM | SW-620 > 100 µM | UACC-257 > 100 µM | UACC-62 > 100 µM
